# Data: PMC9574860, “Chemical Toolkit for PARK7: Potent, Selective, and High-Throughput” (Journal of Medicinal Chemistry, 2022)
# How the values were obtained:
# UCHL1 [1] = molecular target: T1, UCHL1 (Homo sapiens, UniProt P09936); assay: UCHL1 activity assay (Ub-Rho-Morpholine or Ub-AMC substrate); format: biochemical; conditions: UCHL1 1 nM, 1 h preincubation; read-out: UbRhoMP assay UCHL1 IC50
# T1 sequence (P09936 1-223): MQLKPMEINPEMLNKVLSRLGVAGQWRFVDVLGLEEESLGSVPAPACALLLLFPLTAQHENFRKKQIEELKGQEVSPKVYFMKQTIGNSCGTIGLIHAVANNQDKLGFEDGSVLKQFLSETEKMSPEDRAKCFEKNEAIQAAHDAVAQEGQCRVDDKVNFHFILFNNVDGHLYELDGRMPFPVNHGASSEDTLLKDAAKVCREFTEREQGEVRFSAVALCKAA
# Experimental: The assay was performed in a buffer containing 50 mM Tris·HCl, 100 mM NaCl at pH 7.5, 2.0 mM cysteine, 1 mg/mL 3-[(3-cholamidopropyl)dimethylammonio]propanesulfonic acid (CHAPS), and 0.5 mg/mL bovine serum albumin and conducted in a 384-well plate (Corning 3820) with a reaction volume 20 μL in triplicate. The compounds were dissolved in DMSO as 10, 1, and 0.1 mM stock solutions and were transferred to obtain a 12-point serial dilution of 0.05 to 200 μM. Next, UCHL1 (15 μL, final concentration of 1 nM) was dispensed with a Biotek MultiFlowFX liquid dispenser and incubated for 1 h, followed by dispensing the substrate Ub-Rho-Morpholine or Ub-AMC (5 μL, final concentration of 400 nM). The FI signal was monitored with a BMG Labtech PHERAstar plate reader (λex/em 487/535 nm or λex/em 350/450 nm) for 1 h. N-Ethylmaleimide (NEM, 10 mM) was used as a positive control (100% inhibition), and DMSO was used as a negative control (0% inhibition). All samples were normalized to the positive and negative controls and plotted against the inhibitor concentrations (in μM) using the built-in equation “[inhibitor] vs response – variable slope (four parameters), least-squares fit” with constraints “Bottom = 0” and “Top = 100” in GraphPad Prism 9.0.1 software to obtain the IC50 values.
# DUBs = assay: DUB activity profiling in HEK293T cell lysate with general DUB probe Rho-Ub-PA; format: biochemical; conditions: compound 5 μM 1 h 37 °C, then Rho-Ub-PA 30 min, Figure S5
# Experimental: Due to the structural similarity of PARK7 inhibitor JYQ-88 and UCHL1 inhibitor 8RK64 and the fact that many cyanimide-containing compounds have been identified as DUB inhibitors,[35],[37] we investigated the inhibitory potential of JYQ-88 and JYQ-92 toward DUBs. After treating the HEK293T cell lysate with JYQ-88 and JYQ-92, along with UCHL1 inhibitors, 6RK73 and 8RK64 as controls,[38] the remaining activity of DUBs was determined using the general DUB probe Rho-Ub-PA (Figure S5).[39]
# Figure S5. Fluorescence labeling of DUBs to investigate their remaining activity by Rh-Ub-
# PA after the treatment with PARK7 inhibitor JYQ-88 and probe JYQ-92. UCHL1 inhibitors,
# 6RK73 and 8RK64, were used as a control. HEK293T cell lysate was treated with 5 μM final
# MOPS SDS running buffer (Novex, NuPAGE) and visualized by fluorescence scanning on a
# Typhoon FLA 9500 (GE Healthcare Life Sciences) using a Rhodamine channel (λex/em
# (1 picture or pasted object on this page, not shown here)
# UCHL1 [2] = molecular target: T1, UCHL1; assay: JYQ-92 labeling in HEK293T cell lysate with UCHL1 knockdown; conditions: HEK293T lysate with PARK7 or UCHL1 knockdown, probe 1 μM; Figure 4D
# Experimental: (§1) We next investigated the ability of JYQ-92 to label PARK7 activity in HEK293T cell lysates by treating with the increasing concentration of JYQ-92 (0–5 μM) for 1 h. […] To study its specificity toward PARK7 compared to UCHL1 in more detail, HEK293T cell lysates where we knockdown PARK7 or UCHL1 were treated with 1 μM final concentration of JYQ-92.
# (§2) The samples were kept on ice and sonicated using 10 cycles of 30 s pulse on and 30 s pulse off (Bioruptor, Diagenode). […] For the labeling experiments, the prepared cell lysate was incubated with an indicated concentration of JYQ-92 in each experiment for 1 h at 37 °C. The reactions were stopped by adding NuPAGE LDS sample buffer (4×).
# PARK7 [3] = molecular target: T2, PARK7 (Homo sapiens, UniProt Q99497); assay: Probe JYQ-92 labeling of endogenous PARK7 in HEK293T cell lysate; conditions: 0–5 μM probe, 1 h, Figure 4C
# T2 sequence (Q99497 1-189): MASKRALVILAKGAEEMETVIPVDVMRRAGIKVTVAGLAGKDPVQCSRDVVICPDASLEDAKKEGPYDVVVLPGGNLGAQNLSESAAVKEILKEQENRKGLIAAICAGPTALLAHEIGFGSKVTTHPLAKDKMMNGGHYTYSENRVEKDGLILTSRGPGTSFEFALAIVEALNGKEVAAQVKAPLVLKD
# Experimental: as §1, §2
# PARK7 [4] = molecular target: T2, PARK7; assay: Probe labeling of purified recombinant PARK7 (SDS-PAGE, fluorescence scanning); format: binding; set-up: GST (N, cleaved yes); made in house; host or cells: E. coli BL21(DE3) Rosetta2; conditions: for Probe concentration from which PARK7 labeling was observed: purified PARK7 1 μM, 1 h 37 °C, Figure 4A
# Text: PARK7 inhibitor JYQ-88 was further converted into activity-based probes by installing SulfoCy5, Rhodamine110, or BodipyFL. We took advantage of the azide moiety in JYQ-88 and conjugated alkyne versions of these dyes using the copper(I)-catalyzed azide alkyne cycloaddition (CuAAC) to obtain compounds JYQ-92, JYQ-93, and JYQ-107 (Scheme 2). We next investigated the ability of the probes to label and visualize PARK7. […] The SulfoCy5 probe JYQ-92 and Rhodamine110 probe JYQ-107 labeled PARK7 already at 1 μM, while the BodipyFL probe JYQ-93 was less efficient than the other probes as PARK7 labeling was only observed from 5 μM.
# All the labeling assays were performed in Tris buffer (50 mM Tris–HCl, 150 mM NaCl, 2 mM TCEP, pH 7.5). For labeling with the 8RK59 probe, 1 μM final concentrations of UCHL1 and PARK7 were individually or together incubated with 2 μM final concentrations of 8RK59 for 30 min at 37 °C, followed by protein visualization. For labeling with JYQ-92, JYQ-93, and JYQ-107, 1 μM final concentration of PARK7 was incubated with different concentrations (0, 0.1, 0.5, 1, 2, 5, and 10 μM) of the indicated probes for 1 h at 37 °C. […] These samples were resolved by SDS-PAGE using precast Bis-Tris gels (Invitrogen, NuPAGE) with MES SDS running buffer (Novex, NuPAGE).
# PARK7 [5] = molecular target: T2, PARK7; assay: FP binding saturation experiment, kinact/KI of probe JYQ-107; set-up: GST (N, cleaved yes); made in house; host or cells: E. coli BL21(DE3) Rosetta2; conditions: FP probe binding to PARK7 (0 to 5 μM); slope of kobs vs PARK7 concentration; Figure S6D
# Experimental: First, the relation between the change in FP values for JYQ-107 binding to PARK7 was determined. We used a fixed concentration (20 nM) of JYQ-107, incubated it with different amounts of PARK7 (0 to 5 μM), and monitored the FP signal (λex/em 485/520 nm) over time (Supporting Information Figure S6A). The change in FP (ΔmP) was plotted against PARK7 concentration after different incubation times (Figure 5B, left, Supporting Information Figure S6B). […] The latter is expected, as covalent complex formation has a time-dependency, and thus, equilibrium binding values could not be determined for the FP reagent.[45] […] To this end, we calculated the Z’ value, a critical parameter used to assess the quality and HTS suitability of a given assay, for the used PARK7 concentrations and incubation times (Figure 5B, right, Supporting Information Figure S6C).[46] […]
# This assay was performed in the buffer containing 50 mM Tris–HCl, 150 mM NaCl, 2 mM TCEP, pH 7.5, and 1 mg/mL CHAPS and conducted in a 384-well plate (Corning 3820) with a reaction volume 20 μL in triplicate. A serial dilution of PARK7 from 0 to 5 μM (final concentration) was mixed with constant concentration JYQ-107 ([…]), and the increasing FP signal over time was measured at λex/em 480/520 nm using a PHERAstar (BMG Labtech) for 150 min. […]
SMILES,IC50 (UCHL1 [1]) [µM],Effect on remaining DUB activity (Rho-Ub-PA labeled bands) (DUBs),Binding to UCHL1 in the cell lysate (UCHL1 [2]),Probe concentration at which a clear PARK7 band (20 kDa) was observed (PARK7 [3]) [µM],"Binding to wild-type PARK7 (PARK7 [4]; probe 2 μM, 1 h, Figure 4B)",Probe concentration from which PARK7 labeling was observed (PARK7 [4]) [µM],kinact/KI (PARK7 [5]) [M⁻¹ s⁻¹]
CC[N+]1=C(/C=C/C=C/C=C2/N(CCCCCC(=O)NCCCc3cn(CC(=O)N4CCc5nc(NC(=O)[C@@H]6CCN(C#N)C6)sc5C4)nn3)c3ccc(S(=O)(=O)O)cc3C2(C)C)C(C)(C)c2cc(S(=O)(=O)[O-])ccc21 [JYQ-92],19.8,no influence on DUB activity,not to UCHL1,0.5,only binds to the active wild-type PARK7,1,–
N#CN1CC[C@@H](C(=O)Nc2nc3c(s2)CN(C(=O)Cn2cc(CCCNC(=O)c4ccc(-c5c6ccc(=N)cc-6oc6cc(N)ccc56)c(C(=O)O)c4)nn2)CC3)C1 [JYQ-107],18.5,–,–,–,–,1,1180
